In US20170008921A1, “C-3 NOVEL TRITERPENONE WITH C-28 REVERSE AMIDE DERIVATIVES AS HIV INHIBITORS” (HETERO RESEARCH FOUNDATION, priority 2015, published 2017):

How the values were obtained:
[1] = Single dose oral pharmacokinetic study; type: in vivo; details: mouse, Mice oral PK @30 mg/kg, plasma, vehicle 10% Solutol+20% PEG; for AUC(0-t): read-out: AUC0-t; for Cmax: read-out: Cmax
Protocol: The test item was administered through oral route to animals (rat/mice) at 30 mg/kg dose in a suitable vehicle (10% Solutol+20% PEG) at 10 ml/kg dose volume. Blood samples (˜50 μL at each time point) were collected from retro-orbital plexus using K3 EDTA as anticoagulant in eppendorf tubes at defined time intervals 30 minutes, 1 hour, 2 hour, 4 hour, 8 hour, 24 hour & 48 hour under light ether anaesthesia. The samples were centrifuged at 3500×g to separate plasma and stored at −80° C. until analysis. Plasma 25 μl for Mice were processed as per described in sample preparation.
Standard solutions of the test compound 1 mg/mL solutions were prepared in DMSO and further dilutions were made in methanol. […] To the test compound plasma extraction was carried out using Acetonitrile precipitation. After reconstitution with solvent (50% Acetonitrile in Buffer) samples were analyzed by LCMSMS to get the concentrations to calculate PK Parameters.

[2] = Cyto-toxicity (MTT assay); type: cell-based
Protocol: On day 1 calculate the number of cells required for the assay and seed 3×10^4 cells in 200 μl per well. Weigh the compound and dissolve it in DMSO to get 10 mM stock which is further diluted to 3 mM and 1 mM. […] Add DMSO to controls in a way to obtain final concentration of solvent that is not greater than 1%. Incubate for 4 days in 5% CO2 incubator at 37° C. On day 4, 100 μl of medium was removed from each well without disturbing the cells. Add 10 μl of MTT reagent and incubate for 4 hours at 5% CO2 incubator at 37° C. for formation of crystals. Add 200 μl of 0.1N acidic isopropanol to dissolve the crystals and read the plate at 590 nm. The values are mentioned in below Table-3 and Table-3A.

SMILES | AUC(0-t) [1] | Cmax [1] | viability at 4 days, 0.01 µM [2] | viability at 4 days, 0.1 µM [2] | viability at 4 days, 1 µM [2]
CC(C)C1=C2[C@H]3CC[C@@H]4[C@@]5(C)CC[C@H](OC(=O)[C@H]6C[C@@H](C(=O)O)C6(C)C)C(C)(C)[C@@H]5CC[C@@]4(C)[C@]3(C)CC[C@@]2(NC(=O)C(C)(C)NC(=O)C2(c3ccc(Cl)cc3)CC2)CC1=O [Example 2, (1R,3S)-3-((((3aR,5aR,5bR,7aR,9S,11aR,11bR,13aS)-3a-(2-(1-(4-chlorophenyl)cyclopropane-1-carboxamido)-2-methylpropanamido)-1-isopropyl-5a,5b,8,8, 11a-pentamethyl-2-oxo-3,3a,4,5,5a,5b,6,7,7a,8,9,10,11,11a,11b,12,13,13a-octadecahydro-2H-cyclopenta[a]chrysen-9-yl)oxy)carbonyl)-2,2-dimethylcyclobutane-1-carboxylic acid] | 166 µg·h/mL | 13200 ng/mL | 42% | 9% | 8%
CC(C)C1=C2[C@H]3CC[C@@H]4[C@@]5(C)CC[C@H](OC(=O)[C@H]6C[C@@H](C(=O)O)C6(C)C)C(C)(C)[C@@H]5CC[C@@]4(C)[C@]3(C)CC[C@@]2(NC(=O)C(C)(C)NC(=O)c2ccccc2)CC1=O [Example 3, (1R,3S)-3-((((3aR,5aR,5bR,7aR,9S,11aR,11bR,13aS)-3a-(2-benzamido-2-methylpropanamido)-1-isopropyl-5a,5b,8,8,11a-pentamethyl-2-oxo-3,3a,4,5,5a, 5b,6,7,7a,8,9,10,11,11a,11b,12,13,13a-octadecahydro-2H-cyclopenta[a]chrysen-9-yl)oxy)carbonyl)-2,2-dimethylcyclobutane-1-carboxylic acid] | 545 µg·h/mL | 29600 ng/mL | 32% | 13% | 7%
CC(C)C1=C2[C@H]3CC[C@@H]4[C@@]5(C)CC[C@H](OC(=O)[C@H]6C[C@@H](C(=O)O)C6(C)C)C(C)(C)[C@@H]5CC[C@@]4(C)[C@]3(C)CC[C@@]2(NC(=O)C(C)(C)NC(=O)c2ccc(Cl)c(Cl)c2)CC1=O [Example 4, (1R,3S)-3-((((3aR,5aR,5bR,7aR,9S,11aR,11bR,13aS)-3a-(2-(3,4-dichlorobenzamido)-2-methylpropanamido)-1-isopropyl-5a,5b,8,8,11a-pentamethyl-2-oxo-3,3a,4,5,5a,5b,6,7,7a,8,9,10,11,11a,11b,12,13,13a-octadecahydro-2H-cyclopenta[a]chrysen-9-yl)oxy)carbonyl)-2,2-dimethylcyclobutane-1-carboxylic acid] | 185 µg·h/mL | 8840 ng/mL | 20% | 12% | 9%
CC(C)C1=C2[C@H]3CC[C@@H]4[C@@]5(C)CC[C@H](OC(=O)[C@H]6C[C@@H](C(=O)O)C6(C)C)C(C)(C)[C@@H]5CC[C@@]4(C)[C@]3(C)CC[C@@]2(NC(=O)C(C)(C)NC(=O)c2cnccn2)CC1=O [Example 5, (1R,3S)-3-((((3aR,5aR,5bR,7aR,9S,11aR,11bR,13aS)-1-isopropyl-5a,5b,8,8,11a-pentamethyl-3a-(2-methyl-2-(pyrazine-2-carboxamido)propanamido)-2-oxo-3,3a,4,5,5a,5b,6,7,7a,8,9,10,11,11a,11b,12,13,13a-octadecahydro-2H-cyclopenta[a]chrysen-9-yl)oxy)carbonyl)-2,2-dimethylcyclobutane-1-carboxylic acid] | 289 µg·h/mL | 26000 ng/mL | 74% | 35% | 4%
CC(C)C1=C2[C@H]3CC[C@@H]4[C@@]5(C)CC[C@H](OC(=O)[C@H]6C[C@@H](C(=O)O)C6(C)C)C(C)(C)[C@@H]5CC[C@@]4(C)[C@]3(C)CC[C@@]2(NC(=O)C(C)(C)NC(=O)c2ccc(N)nc2)CC1=O [Example 6, (1R,3S)-3-((((3aR,5aR,5bR,7aR,9S,11aR,11bR,13aS)-3a-(2-(6-aminonicotinamido)-2-methylpropanamido)-1-isopropyl-5a,5b,8,8,11a-pentamethyl-2-oxo-3,3a,4,5,5a,5b,6,7,7a,8,9,10,11,11a,11b,12,13,13a-octadecahydro-2H-cyclopenta[a]chrysen-9-yl)oxy)carbonyl)-2,2-dimethylcyclobutane-1-carboxylic acid] | 100 µg·h/mL | 11100 ng/mL | 60% | 19% | 4%
Cc1cnc(C(=O)NC(C)(C)C(=O)N[C@@]23CC[C@]4(C)[C@H](CC[C@@H]5[C@@]6(C)CC[C@H](OC(=O)[C@H]7C[C@@H](C(=O)O)C7(C)C)C(C)(C)[C@@H]6CC[C@]54C)C2=C(C(C)C)C(=O)C3)cn1 [Example 7, (1R,3S)-3-((((3aR,5aR,5bR,7aR,9S,11aR,11bR,13aS)-1-isopropyl-5a,5b,8,8,11a-pentamethyl-3a-(2-methyl-2-(5-methylpyrazine-2-carboxamido)propanamido)-2-oxo-3,3a,4,5,5a,5b,6,7,7a,8,9,10,11,11a,11b,12,13,13a-octadecahydro-2H-cyclopenta[a]chrysen-9-yl)oxy)carbonyl)-2,2-dimethylcyclobutane-1-carboxylic acid] | 517 µg·h/mL | 41900 ng/mL | 28% | 9% | 0%
CC(C)C1=C2[C@H]3CC[C@@H]4[C@@]5(C)CC[C@H](OC(=O)[C@H]6C[C@@H](C(=O)O)C6(C)C)C(C)(C)[C@@H]5CC[C@@]4(C)[C@]3(C)CC[C@@]2(NC(=O)C(C)(C)NC(=O)CN2CCCCC2)CC1=O [Example 10, (1R,3S)-3-((((3aR,5aR,5bR,7aR,9S,11aR,11bR,13aS)-1-isopropyl-5a,5b,8,8,11a-pentamethyl-3a-(2-methyl-2-(2-(piperidin-1-yl)acetamido)propan amido)-2-oxo-3,3a,4,5,5a,5b,6,7,7a,8,9,10,11,11a,11b,12,13,13a-octadecahydro-2H-cyclopenta[a]chrysen-9-yl)oxy)carbonyl)-2,2-dimethylcyclobutane-1-carboxylic acid] | 69.8 µg·h/mL | 9790 ng/mL | 67% | 1% | 0%
CC(C)C1=C2[C@H]3CC[C@@H]4[C@@]5(C)CC[C@H](OC(=O)[C@H]6C[C@@H](C(=O)O)C6(C)C)C(C)(C)[C@@H]5CC[C@@]4(C)[C@]3(C)CC[C@@]2(NC(=O)C(C)(C)NC(=O)c2ccc3[nH]cnc3c2)CC1=O [Example 12, (1R,3S)-3-((((3aR,5aR,5bR,7aR,9S,11aR,11bR,13aS)-3a-(2-(1H-benzo[d]imidazole-5-carboxamido)-2-methylpropanamido)-1-isopropyl-5a,5b,8,8,11a-pentamethyl-2-oxo-3,3a,4,5,5a,5b,6,7,7a,8,9,10,11,11a,11b,12,13,13a-octadecahydro-2H-cyclopenta[a]chrysen-9-yl)oxy)carbonyl)-2,2-dimethylcyclobutane-1-carboxylic acid] | 61.3 µg·h/mL | 8540 ng/mL | 42% | 7% | 3%
CC(C)C1=C2[C@H]3CC[C@@H]4[C@@]5(C)CC[C@H](OC(=O)[C@H]6C[C@@H](C(=O)O)C6(C)C)C(C)(C)[C@@H]5CC[C@@]4(C)[C@]3(C)CC[C@@]2(NC(=O)C(C)(C)NCc2ccc(Cl)cc2)CC1=O [Example 68, (1R,3S)-3-((((3aR,5aR,5bR,7aR,9S,11aR,11bR,13aS)-3a-(2-((4-chlorobenzyl)amino)-2-methylpropanamido)-1-isopropyl-5a,5b,8,8,11a-pentamethyl-2-oxo-3,3a,4,5,5a,5b,6,7,7a,8,9,10,11,11a,11b,12,13,13a-octadecahydro-2H-cyclopenta[a]chrysen-9-yl)oxy)carbonyl)-2,2-dimethylcyclobutane-1-carboxylic acid] | 272 µg·h/mL | 20000 ng/mL | – | – | –
CC(C)C1=C2[C@H]3CC[C@@H]4[C@@]5(C)CC[C@H](OC(=O)[C@H]6C[C@@H](C(=O)O)C6(C)C)C(C)(C)[C@@H]5CC[C@@]4(C)[C@]3(C)CC[C@@]2(NC(=O)C(C)(C)NC(=O)c2ccc(Cl)cn2)CC1=O [Example 70, (1R,3S)-3-((((3aR,5aR,5bR,7aR,9S,11aR,11bR,13aS)-3a-(2-(5-chloropicolinamido)-2-methylpropanamido)-1-isopropyl-5a,5b,8,8,11a-pentamethyl-2-oxo-3,3a,4,5,5a,5b,6,7,7a,8,9,10,11,11a,11b,12,13,13a-octadecahydro-2H-cyclopenta[a]chrysen-9-yl)oxy)carbonyl)-2,2-dimethylcyclobutane-1-carboxylic acid] | 881 µg·h/mL | 36600 ng/mL | – | – | –
